Measured values taken from paper PMC8563733, “The transcriptional corepressor CtBP2 serves as a metabolite sensor orchestrating hepatic glucose and lipid homeostasis” (Nature Communications, 2021).
Read-outs that look alike come from different tables or passages of the source.

What was measured:
[1] = target: T1, CtBP2 (C-terminal binding protein 2) (Homo sapiens, UniProt P56545); assay: microscale thermophoresis; supported by DSF (Kd […])
T1 construct: full-length CtBP2 with strep-tag and HA-tag tandemly fused to the C-terminus (baculovirus)

[2] = target: T1, CtBP2 (C-terminal binding protein 2); assay: as above; remark: listed apart in the source

Kd [1] [µM] | Kd [2] [µM] | SMILES
18.8 ± 1.28 | – | CCCCCCCC/C=C\CCCCCCCC(=O)SCCNC(=O)CCNC(=O)[C@H](O)C(C)(C)COP(=O)(O)OP(=O)(O)OC[C@H]1O[C@@H](n2cnc3c(N)ncnc32)[C@H](O)[C@@H]1OP(=O)(O)O [oleoyl-CoA]
– | 19.5 ± 6.61 | NC(=O)C1=CN([C@@H]2O[C@H](COP(=O)(O)OP(=O)(O)OC[C@H]3O[C@@H](n4cnc5c(N)ncnc54)[C@H](O)[C@@H]3O)[C@@H](O)[C@H]2O)C=CC1 [NADH]
